The nature of data set [1]: Drug pharmacokinetic parameters referenced in literature. The conditions noted are these: drug clearance/Vd. In kind it is in vivo. The procedure:
Do=Original dosage taken Vd=Volume of distribution of drug (referenced in literature) times the kg body weight of donor C=Plasma drug concentration Ka=Absorption constant of drug (referenced in literature) Kel=Elimination constant of drug (referenced in literature) F=Bioavailability of drug (referenced in literature) t=Elapsed time between dosage and specimen collection
Each donor's drug clearance rate is determined by multiplying the drugs clearance rate (referenced in literature) by the donor's weight (provided).
Likewise, each donor's volume of distribution (DVd) is calculated by multiplying the drug volume of distribution (Vd) (referenced in literature) by the donor's weight (provided).
[formula] • Css max=Steady state maximum concentration (ng/mL) • F=Fractional bioavailability • k=Fractional rate constant (drug clearance/Vd) • t=Dose frequency (hr) • DVd=Donor volume of distribution (reference Eq. 2)
[formula] • Do=Original dose taken (mg) • DVd=Volume of distribution of donor (mL) (reference Eq. 2) • C=Plasma drug concentration (mg/mL) • Ka=Absorption constant of drug (referenced in literature) • Kel=Elimination constant of drug (referenced in literature) • F=Fractional bioavailability of drug (referenced in literature) • t=Elapsed time between dosage and specimen collection (fir)

A short description of data set [2]: Oral fluid plasma equivalent calculation. In kind it is in vivo, human. The text has this: (§1) Each donor provides simultaneous serum and oral fluid samples. The measured serum drug concentration is the LC-MS/MS response ratio of drug to internal standard determined from the individual's provided serum sample. The measured oral fluid drug concentration ratio is the LC-MS/MS response ratio of drug to internal standard determined from the individual's provided oral fluid sample. The oral fluid plasma equivalent is derived from the individual's measured oral fluid drug concentration, salivary pH, as well as various drug parameters referenced in literature.
[formula] • S=Saliva drug concentration (ng/mL) • P=Plasma drug concentration (ng/mL) • pHs=pH of saliva (to be determined at the time of collection) • pHp=pH of plasma (assumed to be 7.4) • pKa=Dissociation constant of a drug (referenced in literature) • fp=Free fraction of drug in plasma (referenced in literature) • fs=Free fraction of drug in saliva (negligible; assumed to be 1)
Once the S/P ratio for a drug is calculated using Eq. 5 or Eq. 6, oral fluid plasma equivalent is determined by […] the calculated S/P by the measured oral fluid drug concentration determined by LC/MS-MS quantitation, ultimately eliminating the necessity of directly analyzing blood samples to determine donor compliance.

The conditions of data set [3]: referenced in literature, cited from earlier work; for Kel: elimination constant.
Data set [4] is described as follows: LC-MS/MS quantitation of drug in donor oral fluid (saliva). In kind it is in vivo, human. The text has this:
With reference now to FIG. 1, an exemplary methodology 100 for collecting oral fluid will be described. First, the donor (sometimes referred to as subject, patient, person, or the like) is positioned to allow retrieval of the oral fluid sample, step 102. Next, an oral fluid collection device is placed in the donor's mouth, step 104. The collection device in one exemplary embodiment may be an absorbent swab placed under the tongue. One particularly useful collection device that has been developed is shown and described in FIG. 6. In this exemplary embodiment, the oral fluid collection device collects about 1 mL of neat oral fluid from the donor. Generally, the term about or approximately in the present application means within an acceptable tolerance, such as, for example, ±10% or the like. Volumetric collection is required for quantitative analysis when analyzed from a buffer solution. Oral fluid may be absorbed by the collection device by allowing saliva to move up the stem of a collection device via capillary action, step 106. When a sufficient amount of oral fluid is collected, the collection device provides indicia that the required collection amount has been collected, step 108. The indicia indicating the required volume is collected may be by a color change on a collection adequacy indicator or the like. Alternatively, an alpha/numeric display may be provided or an audio alert, such as a beep. Determining salivary pH is completed next or substantially at the same time as the required volume is collected, step 110. The pH of the oral fluid may be determined by a pH sensitive pigment or by other means including, for example, a sensor or the like. The pH indicia may be combined or separate from the indicia for volume and may include the same or different indicators. For example, the volume of the sample may be provided by a color strip whereas the pH may be provided by an audio. […] The pH will then be recorded or otherwise maintained for later use, step 112. In this exemplary embodiment, the donor will provide a sample by placing the collector swab under his or her tongue until the indicator changes color. The swab is then placed in 3 mL of oral fluid extraction buffer that promotes stabilization of the drug, preventing bacterial growth, and facilitates efficient extraction of the drugs and/or metabolites from the adsorbent swab, as is further explained below, step 114. Specimens may be aliquoted for analysis, and any remaining sample may be transferred to long-term storage at, for example, a storage temperature of between about −20 to about 0° C. The collected oral fluid may be referred to as a sample or a specimen interchangeably herein.
Specimens may undergo a sample preparation step in advance of providing the sample to the drug concentration analysis engine, which involves extracting the analyte(s) of interest from biological matrices. This process serves to eliminate any biological material that could potentially affect analytical results. Samples are first treated to disrupt any drug matrix interactions (protein binding, conjugation) and then adjusted to a specific pH with a buffer. Analytes are then extracted from the remaining matrix using solid phase extraction module 206, which may be comprised of cartridges that are mixed-mode cationic exchange columns. This technique uses the specific binding of ionized drug molecules to the extraction cartridge packing material resulting in strong analyte retention within the column. A series of aqueous and organic wash steps may be used to assist in removing unwanted compounds and matrix components from the sample. Target analytes are then eluted from the solid phase extraction module 206, collected, and analyzed by identification module 208 that may be, for example, a liquid chromatography tandem mass spectrometry (LC/MS-MS) device, although other analysis devices are possible. […]

Data set [5] in a line: LC-MS/MS quantitation of drug in donor serum/plasma. In kind it is in vivo, human.
From the text: Specimens may undergo a sample preparation step in advance of providing the sample to the drug concentration analysis engine, which involves extracting the analyte(s) of interest from biological matrices. This process serves to eliminate any biological material that could potentially affect analytical results. Samples are first treated to disrupt any drug matrix interactions (protein binding, conjugation) and then adjusted to a specific pH with a buffer. Analytes are then extracted from the remaining matrix using solid phase extraction module 206, which may be comprised of cartridges that are mixed-mode cationic exchange columns. This technique uses the specific binding of ionized drug molecules to the extraction cartridge packing material resulting in strong analyte retention within the column. A series of aqueous and organic wash steps may be used to assist in removing unwanted compounds and matrix components from the sample. Target analytes are then eluted from the solid phase extraction module 206, collected, and analyzed by identification module 208 that may be, for example, a liquid chromatography tandem mass spectrometry (LC/MS-MS) device, although other analysis devices are possible.
In this exemplary embodiment, the specimens are analyzed by the identification module 208 that is a LC/MS-MS device, which allows for accurate and precise analyte identification and quantitation. This analytical technique uses a chromatographic system to separate all of the sample components into discrete peaks and sequentially identifies each compound through mass spectral identification. The chromatographic system is composed of a stationary phase of hydrophobic character (for example, octadecylsilane) and a mobile phase of varying polarity (for example, methanol, water). Specimens are injected into the chromatograph and pumped through the system by flow of the mobile phase. Separation is brought about by differential interactions with the stationary phase based on physical and chemical properties of the individual analytes. The end result is a separation of all of the sample components into discrete bands. As each component elutes from the liquid chromatograph it enters the mass spectrometer. The mass spectrometer is able to first determine an analytes specific molecular weight, called a precursor ion, and subsequently fragment the precursor ion into smaller fragments called product ions. The precursor ion and generated product ions are a specific marker of every analyte of interest. No two compounds will generate completely identical mass spectra. This allows for the identification module 208 to conclusively identify specimen components. Additionally, when specimens are analyzed alongside a series of standards of known concentration, a calibration curve can be generated and quantitative values of identified drugs can be determined.
as §1

In data set [6] the test system is plasma proteins. The conditions noted are these: free fraction in plasma, referenced in literature; cited from earlier work.
The mark [7] stands for this setting: Donor 0182, salivary pH 5.5, dose 5 mg every 6 hr, weight 68.554 kg.
The mark [8] stands for this setting: Donor 0383, salivary pH 5.8, dose 10 mg every 4 hr, weight 68.10 kg.
[9] abbreviates: Donor 0602, salivary pH 5.5, dose 5 mg every 12 hr, weight 163.44 kg.
Setting [10] is: Donor 0442, salivary pH 5.8, dose 100 mg every 8 hr, weight 89.890 kg.
[11] abbreviates: Donor 0604, salivary pH 5.5, dose 50 mg every 8 hr, weight 81.720 kg.
Where [12] appears, read: Donor 0673, salivary pH 6.8, dose 50 mg every 6 hr, weight 105.782 kg.

`COc1ccc2c3c1O[C@H]1C(=O)CC[C@H]4[C@@H](C2)N(C)CC[C@]314` [Hydrocodone]: the “Fractional Rate Constant; “k”” value in data set [1] was 0.132 h⁻¹. The “Hydrocodone Oral Fluid Plasma Equivalent” value in data set [2] (Donor 0409, salivary pH 6, dose 5 mg every 6 hr, weight 67.646 kg) was 20.5 ng/mL. Also, in data set [2] (Donor 0476, salivary pH 7.2, 5.833 hr after last dose), the “Oral Fluid Plasma Equivalent” value is reported as 4.5 ng/mL (reference Eq. 8). Further, the “Hydrocodone Oral Fluid Plasma Equivalent” value in data set [2] (Donor 0704, salivary pH 6.6, dose 10 mg every 12 hr, weight 147.55 kg) is 60.5 ng/mL. In data set [2] (Donor 0897, salivary pH 7, dose 10 mg every 4 hr, weight 83.99 kg), the “Hydrocodone Oral Fluid Plasma Equivalent” value was 10.1 ng/mL. For the same molecule, the Ka in data set [3] (absorption constant) is 2.8 h⁻¹. For the same molecule, in data set [3], the Kel is 0.141 h⁻¹, the Clearance is 8.82 mL/min/kg and the “Fractional Bioavailability” value is 0.7.
Turning to `COc1ccc2c3c1O[C@H]1C(=O)CC[C@@]4(O)[C@@H](C2)N(C)CC[C@]314` [Oxycodone], the “Fractional Rate Constant; “k”” value in data set [1] is 0.372 h⁻¹. Further, the “Measured Saliva Oxycodone Concentration” value in data set [4] (setting [7]) turned out to be 306.4 ng/mL; in data set [4] (setting [8]), 230.2 ng/mL; in data set [4] (setting [9]), 978.2 ng/mL. Besides, the concentration at 1.333 hr is 217 ng/mL in data set [4] (human, oral fluid (saliva), po, 1 mg, Donor 0565, salivary pH 6.4, weight 118.040 kg, 1.333 hr after last dose, read-out: Measured Oral Fluid Concentration) and 42 ng/mL in data set [2] (human, plasma (equivalent calculated from oral fluid), po, 1 mg, Donor 0565, salivary pH 6.4, 1.333 hr after last dose). The “Measured Plasma Oxycodone Concentration” value is recorded as 7.9 ng/mL in data set [5] (setting [7]), 8.4 ng/mL in data set [5] (setting [8]) and 16.7 ng/mL in data set [5] (setting [9]). The molecule further returned a concentration at 1.383 hr in data set [5] (human, plasma, 1 mg, Donor 0565, weight 118.040 kg, 1.383 hr after last dose) of 33.7 ng/mL. Also, the concentration at 6.05 hr in data set [5] (human, plasma, 7.5 mg, Donor 0476, weight 84.898 kg, 6.050 hr after last dose, read-out: Measured Plasma Concentration) came out at 3.2 ng/mL. Moreover, the “Oxycodone Oral Fluid Plasma Equivalent” value in data set [2] (setting [7]) is 7.5 ng/mL; in data set [2] (setting [8]), 11.3 ng/mL; in data set [2] (setting [9]) it was 24.1 ng/mL. For the same molecule, the “Oral Fluid Plasma Equivalent (Calculated Plasma Concentration)” value in data set [2] (Donor 0565, salivary pH 6.4, 1.333 hr after last dose) was 42.0 ng/mL (reference Eq. 8). Moreover, in data set [3], the Kel was 0.174 h⁻¹. In addition, the Clearance in data set [3] is 12.4 mL/min/kg. In data set [3], the “Fractional Bioavailability” value is 0.735. In addition, in data set [6], the “Unbound Fraction (fp)” value is recorded as 0.55.
`COc1cccc(C2(O)CCCCC2CN(C)C)c1` (stereo not drawn) [Tramadol]: in data set [1], the “Fractional Rate Constant; “k”” value stood at 0.178 h⁻¹. The results for the “Measured Saliva Tramadol Concentration” value in data set [4] (setting [10]), in data set [4] (setting [11]) and in data set [4] (setting [12]) were 1302.5 ng/mL, 29926.5 ng/mL and 375.6 ng/mL, respectively. The “Measured Plasma Tramadol Concentration” value came out at 70.4 ng/mL in data set [5] (setting [10]), 376.6 ng/mL in data set [5] (setting [11]) and 104.1 ng/mL in data set [5] (setting [12]). Further, the “Tramadol Oral Fluid Plasma Equivalent” value in data set [2] (setting [10]) is recorded as 41.2 ng/mL; in data set [2] (setting [11]) it was 475.5 ng/mL; in data set [2] (setting [12]) it was 118.7 ng/mL. Also, the Clearance in data set [3] was 8 mL/min/kg. The “Fractional Bioavailability” value in data set [3] is 0.725. Moreover, the “Volume of Distribution” value in data set [3] is 2.7 L/kg. Moreover, the “Unbound Fraction (fp)” value in data set [6] is reported as 0.80.
